Eleven compounds from patent publication US10577365B2, “Derivatives of quinoline as inhibitors of DYRK1A and/or DYRK1B kinases” (Felicitex Therapeutics, Inc., priority 2016, dated 2020) can be followed below.

Structures can show the parent of a compound that is named as a salt.

The target in one assay is T1, DYRK1A (Homo sapiens, UniProt Q13627).
T1 construct: purchased Carna Bioscence (Carna Biosciences) 04-130
Briefly: DYRK1A in vitro kinase assay (ADP-Glo). To be noted: ATP 70 μM (Km), substrate 3 μM, enzyme 2 nM or 0.7 nM, 30 min, rt. Format: biochemical. (In general: ADP-Glo first removes unused ATP, then detects ADP through luciferase.)

In a further assay the target is T2, DYRK1B (Homo sapiens, UniProt Q9Y463).
T2 construct: purchased Carna Bioscence (Carna Biosciences) 04-131
Briefly: DYRK1B in vitro kinase assay (ADP-Glo). It counts as biochemical. To be noted: ADP-Glo assay, ATP 15 μM (Km), substrate 7 μM, enzyme 1 nM or 0.3 nM, 1 h, rt; read-out: DYRK1B IC50.

T2 sequence (Q9Y463 whole entry): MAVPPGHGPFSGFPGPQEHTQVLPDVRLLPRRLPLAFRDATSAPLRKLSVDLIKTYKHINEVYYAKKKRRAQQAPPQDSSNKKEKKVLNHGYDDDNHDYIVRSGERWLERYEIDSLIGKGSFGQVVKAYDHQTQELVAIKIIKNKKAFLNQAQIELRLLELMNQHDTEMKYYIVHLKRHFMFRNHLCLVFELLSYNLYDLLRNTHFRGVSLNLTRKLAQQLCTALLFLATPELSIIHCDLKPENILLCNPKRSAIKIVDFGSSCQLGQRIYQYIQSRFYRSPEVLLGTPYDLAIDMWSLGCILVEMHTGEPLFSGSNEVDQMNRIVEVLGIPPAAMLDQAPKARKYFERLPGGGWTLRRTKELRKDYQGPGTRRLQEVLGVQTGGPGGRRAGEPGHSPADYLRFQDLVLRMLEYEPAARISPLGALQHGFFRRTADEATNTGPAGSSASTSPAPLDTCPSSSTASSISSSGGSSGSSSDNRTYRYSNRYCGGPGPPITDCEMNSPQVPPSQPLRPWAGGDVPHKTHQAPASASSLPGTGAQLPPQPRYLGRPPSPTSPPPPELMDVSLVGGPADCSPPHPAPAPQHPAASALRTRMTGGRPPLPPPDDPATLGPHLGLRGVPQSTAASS

As to `CNC(=O)c1cnc2[nH]cc(-c3ccc4ncc(NCc5cccc(Cl)c5)c(N5CCC[C@H](N)C5)c4c3)c2c1` [Example 55, 3-{4-[(3S)-3-Aminopiperidin-1-yl]-3-{[(3-chlorophenyl)methyl]amino}quinolin-6-yl}-N-methyl-1H-pyrrolo[2,3-b]pyridine-5-carboxamide hydrochloride], the half-maximal inhibitory concentration (IC50) was 10 to 100 nM at DYRK1A and below 10 nM on DYRK1B.

Consider `CNC(=O)c1cnc2[nH]cc(-c3ccc4ncc(NCc5cccc(Cl)c5)c(N5CCOCC5)c4c3)c2c1` [Example 56, 3-(3-{[(3-Chlorophenyl)methyl]amino}-4-(morpholin-4-yl)quinolin-6-yl)-N-methyl-1H-pyrrolo[2,3-b]pyridine-5-carboxamide], for which the concentration for half-maximal inhibition (IC50) on DYRK1A was 10 to 100 nM; on DYRK1B it was below 10 nM.

On to `CNC(=O)c1cnc2[nH]cc(-c3ccc4ncc(NC(C)=O)c(N5CCOCC5)c4c3)c2c1` [Example 57, 3-[3-Acetamido-4-(morpholin-4-yl)quinolin-6-yl]-N-methyl-1H-pyrrolo[2,3-b]pyridine-5-carboxamide], for which the IC50 at DYRK1A and at DYRK1B was below 10 nM in each case.

On to `CNC(=O)c1cnc2[nH]cc(-c3ccc4ncc(NCC5CCOCC5)c(N5CCOCC5)c4c3)c2c1` [Example 58, N-Methyl-3-[4-(morpholin-4-yl)-3-[(oxan-4-ylmethyl)amino]quinolin-6-yl]-1H-pyrrolo[2,3-b]pyridine-5-carboxamide], for which the IC50 is 10 to 100 nM against DYRK1A and below 10 nM on DYRK1B.

As for `N[C@H]1CC[C@H](Nc2c([N+](=O)[O-])cnc3ccc(-c4c[nH]c5ncc(C(=O)NCc6cccnc6)cc45)cc23)CC1` [Example 59, 3-{4-[(4-Aminocyclohexyl)amino]-3-nitroquinolin-6-yl}-N-(pyridin-3-ylmethyl)-1H-pyrrolo[2,3-b]pyridine-5-carboxamide hydrochloride], the concentration for half-maximal inhibition (IC50) on DYRK1A and at DYRK1B was 10 to 100 nM throughout.

`N[C@H]1CC[C@H](Nc2c(NCC3CCOCC3)cnc3ccc(-c4c[nH]c5ncc(C(=O)NCc6cccnc6)cc45)cc23)CC1` [Example 60, 3-{4-[(4-Aminocyclohexyl)amino]-3-[(oxan-4-ylmethyl)amino]quinolin-6-yl}-N-(pyridin-3-ylmethyl)-1H-pyrrolo[2,3-b]pyridine-5-carboxamide hydrochloride]: the IC50 against DYRK1A was 10 to 100 nM; at DYRK1B it was below 10 nM.

Regarding `Nc1cnc2ccc(-c3c[nH]c4ncc(C(=O)NCc5cccnc5)cc34)cc2c1` [Example 61, 3-(3-Aminoquinolin-6-yl)-N-(pyridin-3-ylmethyl)-1H-pyrrolo[2,3-b]pyridine-5-carboxamide], the IC50 at DYRK1A and on DYRK1B was below 10 nM throughout.

Turning to `CC(=O)Nc1cnc2ccc(-c3c[nH]c4ncc(C(=O)NCc5cccnc5)cc34)cc2c1` [Example 62, 3-(3-Acetamidoquinolin-6-yl)-N-(pyridin-3-ylmethyl)-1H-pyrrolo[2,3-b]pyridine-5-carboxamide], the IC50 against DYRK1A and on DYRK1B was below 10 nM throughout.

For the compound `O=C(NCc1cccnc1)c1cnc2[nH]cc(-c3ccc4ncc(NCC5CCOCC5)cc4c3)c2c1` [Example 63, 3-{3-[(Oxan-4-ylmethyl)amino]quinolin-6-yl}-N-(pyridin-3-ylmethyl)-1H-pyrrolo[2,3-b]pyridine-5-carboxamide], the IC50 against DYRK1A and on DYRK1B was below 10 nM each time.

With `CN1CCC(N(C)c2c([N+](=O)[O-])cnc3ccc(-c4c[nH]c5ncccc45)cc23)CC1` [Example 65, N-Methyl-N-(1-methylpiperidin-4-yl)-3-nitro-6-{1H-pyrrolo[2,3-b]pyridin-3-yl}quinolin-4-amine], the IC50 at DYRK1A and at DYRK1B was 10 to 100 nM throughout.

With `CC(=O)N1CCC(Nc2c(N)cnc3ccc(-c4c[nH]c5ncccc45)cc23)CC1` [Example 66, 1-{4-[(3-Amino-6-{1H-pyrrolo[2,3-b]pyridin-3-yl}quinolin-4-yl)amino]piperidin-1-yl}ethan-1-one], the IC50 against DYRK1A and on DYRK1B was below 10 nM throughout.

Usually IC50 stands for the concentration that gives 50% inhibition.
